Experimental data: ChEMBL document CHEMBL5247626, “In vitro and in vivo biological evaluation of newly synthesized multi-target 20(R)-panaxadiol derivatives for treating Alzheimer's disease” (Eur J Med Chem, 2022)
Calls of active or inactive are those of the source. The rule behind the calls is not given here.

Key:
[1] = test system: HUVEC; assay: Cytotoxicity against human HUVEC cells assessed as decrease in cell viability at 120 uM incubated for 24 hrs by MTT assay; type: toxicity, cell-based
[2] = Toxicity in ICR mouse assessed as pathological changes in liver at 12.5 to 50 mg/kg,po administrated for 20 days by hematoxylin and eosin staining based microscopic analysis; type: organism-based; conditions: in vivo, 480 h, dose 12.5-50 mg/kg, time 20 day
[3] = Toxicity in ICR mouse assessed as pathological changes in heart at 12.5 to 50 mg/kg,po administrated for 20 days by hematoxylin and eosin staining based microscopic analysis; type: organism-based; conditions: in vivo, 480 h, dose 12.5-50 mg/kg, time 20 day
[4] = test system: PC-12; assay: Neuroprotective activity against amyloid beta (25 to 35)-induced rat PC12 cells assessed as decrease in amyloid beta level at 3.75 to 30 uM incubated for 30 mins followed by amyloid beta (25 to 35) addition and measured after 24 hrs by ELISA; type: functional, cell-based; conditions: dose 3.75-30 µM, time 24.5 hrs

CC1(C)CCC[C@](C)([C@H]2CC[C@]3(C)[C@@H]2[C@H](O)C[C@@H]2[C@@]4(C)CC[C@H](OC(=O)NCc5ccccc5)C(C)(C)[C@@H]4CC[C@]23C)O1
Activity [1]: Toxic | Activity [2]: Non-Toxic | Activity [3]: Non-Toxic | Activity [4]: Active
